Experimental findings from US20240092784A1, “CONDENSED HETEROCYCLIC COMPOUND” (NISSAN CHEMICAL CORPORATION, priority 2020, published 2024) are described below.

The target of the experiment is human SPR (Homo sapiens (Human), UniProt P35270). In words: Evaluation Example 2: Measurement of human SPR inhibitory activity (seven concentrations, sepiapterin absorbance at 420 nm). It counts as biochemical. The method, then: Human SPR was prepared as described below. The full-length human SPR (1-261) cDNA was purchased from Eurofins Genomics as an artificially synthesized plasmid containing a DNA sequence optimized for the E. coli expression system so that the sequence of the expressed protein after transcription and translation matches the sequence described in UniprotKB (P35270).
Linearized insert and vector were prepared by PCR using primers designed for amplification of human SPR cDNA and primers designed to contain the thrombin recognition sequence of pET28a (Novagen) and a polyhistidine tag. Cloning was performed using In-Fusion (registered trademark) HD Cloning Kit (TaKaRa) to thereby construct a human SPR expression plasmid. The resultant human SPR expression plasmid was transformed into BL21 (DE3) competent cells (INVITROGEN).
The cells were inoculated into LB medium (1% triptone, 0.5% yeast extract, 1% sodium chloride) containing […] of kanamycin, and then precultured at 37° C. overnight. The precultured cells were inoculated into TB medium (1.2% triptone, 2.4% yeast extract, 9.4% dipotassium hydrogen phosphate, 2.2% potassium dihydrogen phosphate, 0.8% glycerin) containing […] of kanamycin, and the cultured at 37° C., to thereby induce SPR expression with 0.5 mM IPTG for four hours. After the induction, the cells were collected by centrifugation at 6,000 G for 30 minutes and washed with PBS, and the washing was discarded. The washed cells were suspended in buffer solution A (20 mM MES, pH 6.5, 100 mM sodium chloride, 1 mM DTT, 5 mM imidazole). Subsequently, the cell suspension was subjected to ultrasonic treatment to thereby homogenize the cells. The cell homogenate was clarified by centrifugation at 30,000 G for 60 minutes and then filtered with a […]. The filtrate was allowed to pass through HisTrapFF 5 mL column (GE Healthcare). The resin was washed with buffer A, and then gradient elution was performed with buffer B (20 mM MES, pH 6.5, 100 mM sodium chloride, 1 mM DTT, 500 mM imidazole). Thrombin was added to a fraction containing the SPR protein, and the mixture was dialyzed in buffer A overnight, to thereby cleave the tag. After removal of the thrombin by with Benzamidine Sepharose 4 FF (GE Healthcare), the resultant product was allowed to pass through the HisTrapFF 5 mL column, to thereby remove the tag, followed by concentration with Amicon Ultra 10,000 NMWL (Merck Millipore). The concentrate was purified by gel filtration using HiLoad 16/60 Superdex 75 pg (GE Healthcare) equilibrated with buffer C (20 mM MES, pH 6.5, 100 mM sodium chloride, 1 mM DTT). The fraction containing SPR protein was concentrated and then cryopreserved at −80° C.
Human SPR inhibitory activity was measured by using a 384-well low adsorption clear plate (Greiner) with buffer D containing 100 mM Tris-HCl (pH 7.5) (Thermo Fisher Scientific) and 0.01% bovine serum albumin (Sigma). A compound was diluted with DMSO to achieve seven different final concentrations; i.e., 0.14 nM, 0.41 nM, 1.23 nM, 3.7 nM, 11.1 nM, 33 nM, and 100 nM. A 1.5 μL aliquot of the compound solution prepared with DMSO was diluted with 250 μL of buffer D, and the thus-diluted solution was dispensed into the 384-well plate at 20 μL/well. Thereafter, human SPR was diluted with buffer D to 150 ng/mL and then dispensed into the 384-well plate at 20 μL/well. Subsequently, 40 μL of ultrapure water containing 120 μM sepiapterin (produced by the method described in L-Sepiapterin, Heterocycles, 2008, 76, 1329-1335 and WO 2013/168693) and 160 μM NADPH (Nacalai) was added to each well, and then reaction was initiated. The reaction mixture was incubated at room temperature for 240 minutes. Thereafter, in order to determine the amount of sepiapterin, the absorbance at 420 nm was measured by applying the 384-well plate to EnSpire multimode plate reader (Perkin Elmer). The percent inhibition (%) of human SPR by the test compound was calculated by the following formula.

[1] abbreviates: Evaluation Example 2, seven concentrations 0.14 nM to 100 nM, 240 minutes at room temperature, read-out: IC50.
Where [2] appears, read: sepiapterin absorbance, Table 41, read-out: concentration at 50% inhibition of human SPR (IC50).

Where two headings read alike, the source gives them in different places.

human SPR, sequence (P35270 whole entry, the tested form may be a part): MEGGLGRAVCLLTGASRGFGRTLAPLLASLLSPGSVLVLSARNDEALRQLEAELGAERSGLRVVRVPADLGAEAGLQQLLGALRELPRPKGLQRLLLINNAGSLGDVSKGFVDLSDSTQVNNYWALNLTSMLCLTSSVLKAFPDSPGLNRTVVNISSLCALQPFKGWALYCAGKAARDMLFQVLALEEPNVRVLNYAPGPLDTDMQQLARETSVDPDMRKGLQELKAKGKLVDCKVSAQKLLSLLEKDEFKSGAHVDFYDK

Take `CC(C)Cn1c(=O)c(C(=O)NC2CC2)c(O)n2ncc(/C=C/C(=O)N3CCOC[C@H]3c3ccccc3)c12` [compound 602, (R,E)-N-Cyclopropyl-7-hydroxy-4-isobutyl-5-oxo-3-(3-oxo-3-(3-phenylmorpholino)prop-1-en-1-yl)-4,5-dihydropyrazolo[1,5-a]pyrimidine-6-carboxamide]: the IC50 under setting [1] was 1.14 nM.

In the case of `Cc1nn2c(O)c(C(=O)NC3CC3)c(=O)n(CC(C)(C)C)c2c1/C=C/C1CCOCC1` [compound 584, (E)-N-Cyclopropyl-7-hydroxy-2-methyl-4-neopentyl-5-oxo-3-(2-(tetrahydro-2H-pyran-4-yl)vinyl)-4,5-dihydropyrazolo[1,5-a]pyrimidine-6-carboxamide], the IC50 under setting [1] was found to be 1.2 nM. As for `Cc1nn2c(O)c(C(=O)NC3CC3)c(=O)n(CC(C)C)c2c1/C=C/C(=O)N1CCCC12CC2` [Synthesis Example 652, (E)-N-Cyclopropyl-7-hydroxy-4-isobutyl-2-methyl-5-oxo-3-(3-oxo-3-(4-azaspiro[2.4]heptan-4-yl)prop-1-en-1-yl)-4,5-dihydropyrazolo[1,5-a]pyrimidine-6-carboxamide], under setting [1], the IC50 is 2.18 nM.

With `CC(C)Cn1c(=O)c(C(=O)NC2CC2)c(O)n2ncc(/C=C/C(=O)N(C)CC3CCOCC3)c12` [compound 499, (E)-N-Cyclopropyl-7-hydroxy-4-isobutyl-3-(3-(methyl((tetrahydro-2H-pyran-4-yl)methyl)amino)-3-oxoprop-1-en-1-yl)-5-oxo-4,5-dihydropyrazolo[1,5-a]pyrimidine-6-carboxamide], the IC50 under setting [1] turned out to be 0.74 nM. Regarding `CC[C@H]1CCCN1C(=O)/C=C/c1cnn2c(O)c(C(=O)NC3CC3)c(=O)n(CC(C)C)c12` [compound 605, (S,E)-N-Cyclopropyl-3-(3-(2-ethylpyrrolidin-1-yl)-3-oxoprop-1-en-1-yl)-7-hydroxy-4-isobutyl-5-oxo-4,5-dihydropyrazolo[1,5-a]pyrimidine-6-carboxamide], under setting [1], the IC50 was 1.2 nM. With `CC(C)Cn1c(=O)c(C(=O)NC2CC2)c(O)n2ncc(/C=C/C(=O)N(C)Cc3ncccn3)c12` [Synthesis Example 711, (E)-N-Cyclopropyl-7-hydroxy-4-isobutyl-3-(3-(methyl(pyrimidin-2-ylmethyl)amino)-3-oxoprop-1-en-1-yl)-5-oxo-4,5-dihydropyrazolo[1,5-a]pyrimidine-6-carboxamide], the IC50 under setting [2] came out at 1.2 nM. For `Cn1cc(-c2cc3n(CC(C)(C)C)c(=O)c(C(=O)NC4CC4)c(O)n3n2)c(C(N)=O)n1` [Synthesis Example 310, 2-(3-Carbamoyl-1-methyl-1H-pyrazol-4-yl)-N-cyclopropyl-7-hydroxy-4-neopentyl-5-oxo-4,5-dihydropyrazolo[1,5-a]pyrimidine-6-carboxamide], under setting [1], the IC50 was found to be 2.47 nM. Regarding `CC(C)Cn1c(=O)c(C(=O)NC2CC2)c(O)n2ncc(/C=C/C(=O)N3CC(F)(F)C3)c12` [compound 555, (E)-N-Cyclopropyl-3-(3-(3,3-difluoroazetidin-1-yl)-3-oxoprop-1-en-1-yl)-7-hydroxy-4-isobutyl-5-oxo-4,5-dihydropyrazolo[1,5-a]pyrimidine-6-carboxamide], under setting [1], the IC50 stood at 0.82 nM.

As for `Cc1nn2c(O)c(C(=O)NC3CC3)c(=O)n(CC(C)C)c2c1/C=C/C(=O)N1C[C@@H](C)OC[C@H]1C` [Synthesis Example 644, N-Cyclopropyl-3-((E)-3-((2R,5R)-2,5-dimethylmorpholino)-3-oxoprop-1-en-1-yl)-7-hydroxy-4-isobutyl-2-methyl-5-oxo-4,5-dihydropyrazolo[1,5-a]pyrimidine-6-carboxamide], the IC50 under setting [1] came to 0.91 nM. As to `O=C(NC1CC1)c1c(O)n2nc(Nc3cnccn3)cc2n(CC2CCOCC2)c1=O` [Synthesis Example 350, N-Cyclopropyl-7-hydroxy-5-oxo-2-(pyrazin-2-ylamino)-4-((tetrahydro-2H-pyran-4-yl)methyl)-4,5-dihydropyrazolo[1,5-a]pyrimidine-6-carboxamide], under setting [1], the IC50 is 0.75 nM. As for `CC(C)Cn1c(=O)c(C(=O)NC2CC2)c(O)n2ncc(/C=C/C(=O)N(C)CC(C)(C)O)c12` [compound 518, (E)-N-Cyclopropyl-7-hydroxy-3-(3-((2-hydroxy-2-methylpropyl)(methyl)amino)-3-oxoprop-1-en-1-yl)-4-isobutyl-5-oxo-4,5-dihydropyrazolo[1,5-a]pyrimidine-6-carboxamide], the IC50 under setting [1] came out at 0.66 nM. Regarding `CC(C)Cn1c(=O)c(C(=O)NC2CC2)c(O)n2ncc(/C=C/C(=O)N3CCC[C@H]3c3cccnc3)c12` [compound 603, (S,E)-N-Cyclopropyl-7-hydroxy-4-isobutyl-5-oxo-3-(3-oxo-3-(2-(pyridin-3-yl)pyrrolidin-1-yl)prop-1-en-1-yl)-4,5-dihydropyrazolo[1,5-a]pyrimidine-6-carboxamide], the IC50 under setting [1] came to 1.1 nM. Turning to `CC(C)Cn1c(=O)c(C(=O)NC2CC2)c(O)n2ncc(/C=C/C(=O)N3CCN(C4CC(F)(F)C4)C[C@H]3C)c12` [Synthesis Example 715, (R,E)-N-Cyclopropyl-3-(3-(4-(3,3-difluorocyclobutyl)-2-methylpiperazin-1-yl)-3-oxoprop-1-en-1-yl)-7-hydroxy-4-isobutyl-5-oxo-4,5-dihydropyrazolo[1,5-a]pyrimidine-6-carboxamide], the IC50 under setting [2] stood at 1.28 nM.

For `O=C(NC1CC1)c1c(O)n2ncc(/C=C/C(=O)N3CCOCC3)c2n(CC2CC2)c1=O` [Synthesis Example 387, (E)-N-Cyclopropyl-4-(cyclopropylmethyl)-7-hydroxy-3-(3-morpholino-3-oxoprop-1-en-1-yl)-5-oxo-4,5-dihydropyrazolo[1,5-a]pyrimidine-6-carboxamide], the IC50 under setting [1] amounted to 0.86 nM. In the case of `CC(C)Cn1c(=O)c(C(=O)NC2CC2)c(O)n2ncc(/C=C/C(=O)N3CCC(S(C)(=O)=O)CC3)c12` [compound 488], under setting [1], the IC50 turned out to be 0.87 nM.

With `Cc1nn2c(O)c(C(=O)NC3CC3)c(=O)n(CC(C)C)c2c1/C=C/C(=O)N(C)Cc1ccn(C)n1` [Synthesis Example 639, (E)-N-Cyclopropyl-7-hydroxy-4-isobutyl-2-methyl-3-(3-(methyl((1-methyl-1H-pyrazol-3-yl)methyl)amino)-3-oxoprop-1-en-1-yl)-5-oxo-4,5-dihydropyrazolo[1,5-a]pyrimidine-6-carboxamide], under setting [1], the IC50 is 1.06 nM. In the case of `CNc1nn2c(O)c(C(=O)NC3CC3)c(=O)n(CC(C)C)c2c1/C=C/C(=O)N1CC[C@H](F)C1` [Synthesis Example 429, (S,E)-N-Cyclopropyl-3-(3-(3-fluoropyrrolidin-1-yl)-3-oxoprop-1-en-1-yl)-7-hydroxy-4-isobutyl-2-(methylamino)-5-oxo-4,5-dihydropyrazolo[1,5-a]pyrimidine-6-carboxamide], under setting [1], the IC50 stood at 0.8 nM. With `CC(C)(C)Cn1c(=O)c(C(=O)NC2CC2)c(O)n2nc(Nc3cnc(C(=O)N4CC[C@H](O)C4)cn3)cc12` [Synthesis Example 360, (S)-N-Cyclopropyl-7-hydroxy-2-((5-(3-hydroxypyrrolidine-1-carbonyl)pyrazin-2-yl)amino)-4-neopentyl-5-oxo-4,5-dihydropyrazolo[1,5-a]pyrimidine-6-carboxamide], under setting [1], the IC50 is 0.76 nM.

Take `CC(C)Cn1c(=O)c(C(=O)NC2CC2)c(O)n2ncc(/C=C/C(=O)N3CCCC3C3CC3)c12` (racemic) [compound 593, (E)-N-Cyclopropyl-3-(3-(2-cyclopropylpyrrolidin-1-yl)-3-oxoprop-1-en-1-yl)-7-hydroxy-4-isobutyl-5-oxo-4,5-dihydropyrazolo[1,5-a]pyrimidine-6-carboxamide (racemate)]: the IC50 under setting [1] stood at 1.48 nM.
